According to patent US7297696B2, “Antagonists of MCP-1 function and methods of use thereof” (Telik, Inc., priority 2001, dated 2007):

Key:
Type in all cases: in vivo
ICR male mice = assay: Thioglycollate-induced inflammation model; settings: peritoneal cavity, 96 h; 10 mg/kg subcutaneous at 0 h, 3 h and 16 hours
Experimental: 3% Brewer's thioglycollate broth (Difco, Detroit, Mich.) was injected into the petitoneal cavity of ICR male mice, followed by subcutaneous administration of the test compounds at the same dose after 0 h, 3 h and 16 hours. After 96 h, the number of total elicited cells and MOMA2-positive cells in the peritoneal cavity was analyzed using an EPICS XL Beckman Coulter.

apoE-deficient mice = assay: Apolipoprotein E-deficient mouse model of atherosclerosis; settings: 50 mg/kg as food admixture for 8 weeks, high-fat diet; percent of total cross-sectional wall area
Experimental: Apolipoprotein E (apoE) is a component of several plasma lipoproteins, including chylomicrons, VLDL, and HDL. Receptor-mediated catabolism of these lipoprotein particles is mediated through the interaction of apoE with the LDL receptor (LDLR) or with LDLR-related protein (LRP). […] The efficacy of the compounds of the present invention was also evaluated using this animal model.
Male, 4 week-old apoE-deficient mice were fed on high-fat diet (15% fat, 1.25% cholesterol). The test compound was administered as food admixture for 8 weeks. At 12 weeks old, the mice were fasted for 4 hours and then sacrificed under ether anesthesia. […]
To determine cross-sectional lesion areas, the hearts were embedded in OCT compound and sectioned at 10 μm using cryostat. The sections were stained with oil red O. Each section of the aortic valve was evaluated for oil red O staining by capturing images directly from a RGB camera attached to a light microscope; image analysis was performed with the IPAP-WIN software (Sumika Tekno, Japan). Five sections were examined for each animal, and the sum of the lesion areas was calculated and expressed as the percent of the total cross-sectional wall area. Total cholesterol was determined with a Determiner assay kit (Kyowa Medex, Japan).

male ICR mice = assay: Caerulein-induced pancreatitis; settings: 20 mg/kg orally after caerulein injection, then at 3 h and 6 h; blood after 15 h
Experimental: Caerulein was injected intraperitoneally to male ICR mice every 1 h for 6 h. The test compound was given orally immediately after the caerulein injection, and then again at 3 h and 6 h. After 15 h, the mice were sacrificed and their blood was collected and analyzed for serum amylase activity as a marker of pancreatitis.

Structure (SMILES) | MOMA2-positive Cells (ICR male mice) | Total Cells (ICR male mice) | % Atherosclerotic Lesion (mean ± SD) (apoE-deficient mice) | Serum Amylase Level (U, Caraway, mean ± SD) (male ICR mice)
O=C(O)COc1ccc(NC(=O)NC(=O)c2ccc3c(c2)OCCO3)cc1Cl [Compound 55, 2-(4-{[(2H,3H-Benzo[e]1,4-dioxan-6-ylcarbonylamino)carbonyl]amino}-2-chlorophenoxy)acetic acid] | 10.1 ± 1.5 ×10^6 | 14.1 ± 1.6 ×10^6 | 17.80 ± 3.43 % | –
O=C(NC(=O)c1ccc2c(c1)OCCO2)Nc1ccc(C(=O)[O-])c(Cl)c1.[Na+] [Compound 57, Sodium 4-{[(2H,3H-benzo[e]1,4-dioxan-6-ylcarbonylamino)carbonyl]amino}-2-chlorobenzoate] | – | – | – | 551 ± 157 U, Caraway
O=C(NC(=O)c1ccc2c(c1)OCCO2)Nc1ccc(C(=O)[O-])cc1.[Na+] [Compound 59, Sodium 4-{[(2H,3H-benzo[3,4-e]1,4-dioxin-6-ylcarbonylamino)carbonyl]amino}benzoate] | 13.2 ± 1.4 ×10^6 | 17.3 ± 1.7 ×10^6 | 21.08 ± 6.86% | –
